Results published in paper PMC8175490, “Validation of mathematical model with phosphate activation effect by batch (R)-phenylacetylcarbinol biotransformation process utilizing Candida tropicalis pyruvate decarboxylase in phosphate buffer” (Scientific Reports, 2021).

Biological target: T1, partially purified C. tropicalis TISTR 5350 pyruvate decarboxylase (PDC) (Candida tropicalis, UniProt C5MDS4)
T1 construct: gene CTRG_03826
Test: global fit of six-ODE model to batch PAC biotransformation progress curves (HPLC, enzymatic pyruvate assay)
Type: biochemical
Settings: carboligation with benzaldehyde (30/36 and 100/120 mM benzaldehyde/pyruvate); 250 mM phosphate pH 7.0, 4 °C, 1 mM TPP, 1 mM MgSO4; partially purified enzyme; model-fitted affinity constant; sigmoidal
Description: global fit of six-ODE model to batch PAC biotransformation progress curves (HPLC, enzymatic pyruvate assay) on partially purified C. tropicalis TISTR 5350 pyruvate decarboxylase (PDC)

T1 sequence (C5MDS4 entry or part of it): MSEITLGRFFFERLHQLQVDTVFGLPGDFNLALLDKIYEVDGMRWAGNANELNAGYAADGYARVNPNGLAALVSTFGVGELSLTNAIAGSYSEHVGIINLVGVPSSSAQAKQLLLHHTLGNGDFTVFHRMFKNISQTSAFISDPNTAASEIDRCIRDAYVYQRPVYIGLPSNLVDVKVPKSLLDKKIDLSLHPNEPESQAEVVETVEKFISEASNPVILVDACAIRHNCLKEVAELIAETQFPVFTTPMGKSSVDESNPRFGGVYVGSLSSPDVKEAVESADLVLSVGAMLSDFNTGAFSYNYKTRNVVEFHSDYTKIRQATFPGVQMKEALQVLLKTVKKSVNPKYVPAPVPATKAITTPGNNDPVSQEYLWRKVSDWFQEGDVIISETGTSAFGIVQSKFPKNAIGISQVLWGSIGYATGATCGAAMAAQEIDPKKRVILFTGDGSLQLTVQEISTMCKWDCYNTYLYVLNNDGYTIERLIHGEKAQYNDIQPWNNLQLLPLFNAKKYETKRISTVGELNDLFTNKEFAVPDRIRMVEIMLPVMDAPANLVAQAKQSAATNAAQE

O=Cc1ccccc1 [B, benzaldehyde] was tested, and the Optimized values was “(1.01 ± 0.02) × 10^–4 mM^1−h”.
